From BindingDB's records for doi:10.1016/s0960-894x(02)00061-6 (Lek, 2002)

Target: Beta-lactamase TEM (Escherichia coli, UniProt P62593)
Experiment: ChEBML_47839
Experimental: The compound was tested for its inhibitory activity towards Class A TEM-1 beta-lactamase from Escherichia coli at 0.3 umol

Beta-lactamase TEM, sequence (P62593 whole entry): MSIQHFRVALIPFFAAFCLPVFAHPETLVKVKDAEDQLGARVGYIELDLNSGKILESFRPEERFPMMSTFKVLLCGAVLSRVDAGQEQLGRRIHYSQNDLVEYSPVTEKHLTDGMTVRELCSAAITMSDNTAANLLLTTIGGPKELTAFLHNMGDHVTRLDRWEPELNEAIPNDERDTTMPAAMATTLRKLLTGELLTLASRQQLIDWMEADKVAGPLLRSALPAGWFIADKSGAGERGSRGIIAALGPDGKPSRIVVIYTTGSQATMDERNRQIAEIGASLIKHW

Q: How did the IC50 turn out when C/C=C1/C(=O)N2C(C(=O)O)=C3CCCCC3[C@H]12 (stereo partly drawn) [Sodium; (R)-1-eth-(E)-ylidene-2-oxo-1,2,5,6,7,8,8a,8b-octahydro-azeto[2,1-a]isoindole-4-carboxylate] was run?
A: 120 µM
